Test [1] has as its system postoperative pain (incised hind paw withdrawal latency). Kind of test: Postoperative pain, thermal stimulus, acute treatment (hind paw incision). It is filed as in vivo, rats. Conditions: Rattus norvegicus, iv.
Test [2] concerns capsaicin-induced nociceptive behaviours. Briefly: Visceral pain model: capsaicin solution delivered to the colon, nociceptive behaviours counted for 30 min. Set-up: species or system mice. Conditions: mouse, in vivo.
For test [3], the system named is moderate to severe pain associated with cancer. Set-up: species or system human. Conditions: in vivo.
Test [4] relates to pain (visceral pain, pain caused by therapy). Conditions: human, in vivo.
In test [5] the test system is carrageenan-induced inflammatory pain. Set-up: species or system SD rats. As to conditions: rat, in vivo.
Test [6] has as its system formalin-induced inflammation. Also on record: species or system rats. As to conditions: rat, in vivo.
Test [7] deals with postoperative pain (incised hind paw withdrawal latency). Kind of test: Postoperative pain, thermal stimulus, four days of pre-treatment. It is filed as in vivo, rats. The method, then:
The studied compounds (dypirone at 40 mg/kg and tetrodotoxin at 0, 3, 4 μg/kg) were administered subcutaneously to groups of 12 male rats twice daily for 4 days. On the morning of Day 5, an incision was made in the hind paw of the rats. One hour later, the compounds were administered again and 30 minutes later, a thermal stimulus was applied in the incised paw and the latency to withdraw the hind paws was recorded.

Where “and” joins values, the source holds several entries; their conditions need not be identical. Equal values may be shown once.

The ED50 is the midpoint of the dose-response relation. Higher therefore signals a need for a large dose. In test [1], `CN1CC[C@]23c4c5ccc(O)c4O[C@H]2[C@@H](O)C=C[C@H]3[C@H]1C5` [Morphine] registered a median effective dose (ED50) of 0.59 mg/kg. In addition, the “effects on capsaicin-induced nociceptive behaviours versus control” value in test [2] was 54.8% and 92.5% and 100%.
In test [3], `N=C1NC(O)C2C3OC4(O)OC(C(O)C2(N1)C4O)C3(O)CO` (stereo not drawn) [Tetrodotoxin, octahydro-12-(hydroxymethyl)-2-imino-5,9:7,10a-dimethano-10aH-[1,3]dioxocino[6,5-d]pyrimidine-4,7,10,11,12-pentol] came in with an impression of change of 1 and a total response day of 66 days. Besides, in test [4], the analgesic response result is “no analgesic response”; the “decrease in current and average pain intensity” value was “about 2 point”; the “most pain relief percentage” value turned out to be 89%; the pain score is 7 /10 and 4 /10. The relief of pain entry in test [4] is on record as “complete relief of their pain”. For the same molecule, the “effect upon the degree of inflammation” value in test [5] is reported as “does not have any effect”. Also, the “nociceptive threshold, Randall-Selitto test (paw pressure)” value in test [5] (sc) is recorded as “higher nociceptive threshold”. Further, the effective dosage in test [6] is 2.5 µg/mg. Moreover, the antinociceptive activity in test [7] (rat, in vivo) was 35% and 39%. For the same molecule, in test [2] (sc), the “effects on capsaicin-induced nociceptive behaviours versus control” value is 30% and 58.8%.
For `Cc1c(N(C)CS(=O)(=O)[O-])c(=O)n(-c2ccccc2)n1C.[Na+]` [Dypirone, reference compound], the antinociceptive activity in test [7] (40 mg/kg s.c. b.i.d., four days of pre-treatment) is 40%.

Source of the values: US20100144767A1, “Use of sodium channel blockers for the treatment of visceral pain or pain caused by cancer treatment” (priority 2005, published 2010).
